The target in test [1] is T1, Bile acid receptor (Homo sapiens) (UniProt Q96RI1).
T1 sequence (whole entry): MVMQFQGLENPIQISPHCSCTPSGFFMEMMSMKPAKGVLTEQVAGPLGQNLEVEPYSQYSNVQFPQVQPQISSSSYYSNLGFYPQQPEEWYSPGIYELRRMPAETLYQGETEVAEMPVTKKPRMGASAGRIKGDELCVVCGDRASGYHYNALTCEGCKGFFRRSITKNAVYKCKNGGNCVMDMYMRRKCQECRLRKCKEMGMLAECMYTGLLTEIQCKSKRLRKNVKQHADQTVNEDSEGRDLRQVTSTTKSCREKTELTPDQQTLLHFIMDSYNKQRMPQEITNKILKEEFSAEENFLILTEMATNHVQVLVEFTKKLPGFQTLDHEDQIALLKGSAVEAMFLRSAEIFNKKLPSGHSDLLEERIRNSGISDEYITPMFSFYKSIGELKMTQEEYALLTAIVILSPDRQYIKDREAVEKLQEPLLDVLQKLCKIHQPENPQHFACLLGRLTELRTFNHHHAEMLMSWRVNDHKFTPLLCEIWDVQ
As to the kind of experiment: Agonist activity at human FXR (247 to 467 residues) expressed in HEK293 cells at 100 uM incubated for 8 hrs by luciferase assay. Type of test: cell-based.

The target of test [2] is T2, G-protein coupled bile acid receptor 1 (Homo sapiens, UniProt Q8TDU6).
T2 sequence (Q8TDU6 whole entry): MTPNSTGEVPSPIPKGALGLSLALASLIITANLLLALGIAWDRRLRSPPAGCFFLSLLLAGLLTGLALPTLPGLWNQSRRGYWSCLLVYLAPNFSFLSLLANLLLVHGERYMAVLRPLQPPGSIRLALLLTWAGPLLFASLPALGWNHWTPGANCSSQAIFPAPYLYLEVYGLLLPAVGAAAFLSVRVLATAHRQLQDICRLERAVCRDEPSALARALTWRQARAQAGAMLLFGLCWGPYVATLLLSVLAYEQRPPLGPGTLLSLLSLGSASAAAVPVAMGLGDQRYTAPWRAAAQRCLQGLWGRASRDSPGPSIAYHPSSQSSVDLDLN
In words: Agonist activity at N-terminal HA-tagged human TGR5 expressed in HEK293 cells assessed as […] in intracellular cAMP levels incubated for 30 mins by Lance Ultra cAMP assay. Type of test: functional, cell-based.

The target in test [3] is T3, G-protein coupled bile acid receptor 1 (Homo sapiens) (UniProt Q8TDU6).
T3 sequence (whole entry): T2 sequence (Q8TDU6 whole entry)
As to the kind of experiment: Agonist activity at N-terminal HA-tagged human TGR5 expressed in HEK293 cells assessed as […] in intracellular cAMP levels incubated for 30 mins by Lance Ultra cAMP assay relative to control. Type of test: functional, cell-based. As to conditions: filed as agonist.

Activity calls are given as the source filed them. The calls are words filed in the database; no cut-off is given here.

The values that follow come from ChEMBL document CHEMBL4837241, “Identification of Betulinic Acid Derivatives as Potent TGR5 Agonists with Antidiabetic Effects via Humanized TGR5H88Y Mutant Mice” (J Med Chem, 2021).

The EC50 is the concentration needed to bring the measured effect to its halfway point. The term Emax denotes the maximal effect, on the per cent scale that the assay sets.

For `CC(C)[C@@H]1CC[C@]2(C(=O)NCC(=O)O)CC[C@]3(C)[C@H](CC[C@@H]4[C@@]5(C)CC[C@@H](OC(=O)NC6CC6)C(C)(C)[C@@H]5CC[C@]43C)[C@@H]12`, in test [1], the result was inactive. Moreover, the EC50 in test [2] was found to be 380 nM. Further, the Emax in test [3] is 96%.
For `CCNS(=O)(=O)O[C@@H]1CC[C@]2(C)[C@H]3CC[C@@H]4[C@H]5[C@H](C(C)C)CC[C@]5(C(=O)O)CC[C@@]4(C)[C@]3(C)CC[C@H]2C1(C)C`, in test [1], the result was inactive. Also, in test [2], the EC50 amounted to 68.6 nM. In test [3], the Emax worked out at 98%.
For `CC1(C)[C@H](OC(=O)NC2CC2)CC[C@]2(C)[C@H]3CC[C@@H]4[C@H]5[C@H]([C@@]6(C)CO6)CC[C@]5(C(=O)O)CC[C@@]4(C)[C@]3(C)CC[C@@H]12` the same measures were “inactive”, 18.6 nM and 99%.
Take `CCOC(=O)O[C@@H]1CC[C@]2(C)[C@H]3CC[C@@H]4[C@H]5[C@H](C(C)C)CC[C@]5(C(=O)O)CC[C@@]4(C)[C@]3(C)CC[C@H]2C1(C)C`: the outcome in test [1] was inactive. Also, in test [2], the EC50 turned out to be 80 nM. Further, the Emax in test [3] is 92%.
For the compound `CC(C)[C@@H]1CC[C@]2(NC(=O)NCC(=O)O)CC[C@]3(C)[C@H](CC[C@@H]4[C@@]5(C)CC[C@@H](OC(=O)NC6CC6)C(C)(C)[C@@H]5CC[C@]43C)[C@@H]12`, the outcome in test [1] was inactive. Further, the EC50 in test [2] worked out at 174 nM. Besides, the Emax in test [3] was found to be 99%.
Turning to `CC(C)[C@@H]1CC[C@]2(C(=O)O)CC[C@]3(C)[C@H](CC[C@@H]4[C@@]5(C)CC[C@@H](OC(=O)NC6CCCC6)C(C)(C)[C@@H]5CC[C@]43C)[C@@H]12`, in test [1], the result was inactive. For the same compound, the concentration for a half-maximal effect (EC50) in test [2] was determined as 29.2 nM. In test [3], the Emax worked out at 92%.
`CC(C)[C@@H]1CC[C@]2(C(=O)OCC(=O)O)CC[C@]3(C)[C@H](CC[C@@H]4[C@@]5(C)CC[C@@H](OC(=O)NC6CC6)C(C)(C)[C@@H]5CC[C@]43C)[C@@H]12`: the outcome in test [1] was inactive. Also, the EC50 in test [2] stood at 306 nM. Moreover, the maximal effect (Emax) in test [3] was 98%.
For the compound `CO/N=C(/C)[C@@H]1CC[C@]2(C(=O)O)CC[C@]3(C)[C@H](CC[C@@H]4[C@@]5(C)CC[C@@H](OC(=O)NC6CC6)C(C)(C)[C@@H]5CC[C@]43C)[C@@H]12`, the outcome in test [1] was inactive. In test [2], the EC50 is 132 nM. Besides, the Emax in test [3] was found to be 97%.
For the compound `CC(C)[C@@H]1CC[C@]2(C(=O)O)CC[C@]3(C)[C@H](CC[C@@H]4[C@@]5(C)CC[C@@H](OC(N)=O)C(C)(C)[C@@H]5CC[C@]43C)[C@@H]12`, the outcome in test [1] was inactive. The EC50 in test [2] came out at 30.7 nM. The Emax in test [3] was found to be 100%.
Regarding `CNC(=O)O[C@@H]1CC[C@]2(C)[C@H]3CC[C@@H]4[C@H]5[C@H](C(C)C)CC[C@]5(C(=O)O)CC[C@@]4(C)[C@]3(C)CC[C@H]2C1(C)C`, the result in test [1] was inactive. Further, the 50% effective concentration (EC50) in test [2] stood at 17.8 nM. Also, the maximal response (Emax) in test [3] is 98%.
In the same order, the values of `CC(C)[C@@H]1CC[C@]2(C(=O)O)CC[C@]3(C)[C@H](CC[C@@H]4[C@@]5(C)CC[C@@H](OC(=O)NC6CC6)C(C)(C)[C@@H]5CC[C@]43C)[C@@H]12` are “inactive”, 10.1 nM and 99%.
For `CCCS(=O)(=O)O[C@@H]1CC[C@]2(C)[C@H]3CC[C@@H]4[C@H]5[C@H](C(C)C)CC[C@]5(C(=O)O)CC[C@@]4(C)[C@]3(C)CC[C@H]2C1(C)C`, in test [1], the result was inactive. Moreover, the concentration giving a half-maximal response (EC50) in test [2] amounted to 77.6 nM. Also, the Emax in test [3] stood at 98%.
`CC(C)[C@@H]1CC[C@]2(NC(=O)OCC(=O)O)CC[C@]3(C)[C@H](CC[C@@H]4[C@@]5(C)CC[C@@H](OC(=O)NC6CC6)C(C)(C)[C@@H]5CC[C@]43C)[C@@H]12`: in test [1], the outcome was inactive. The EC50 in test [2] amounted to 271 nM. Also, the Emax in test [3] is 98%.
In the case of `CC(=O)[C@@H]1CC[C@]2(C(=O)O)CC[C@]3(C)[C@H](CC[C@@H]4[C@@]5(C)CC[C@@H](OC(=O)NC6CC6)C(C)(C)[C@@H]5CC[C@]43C)[C@@H]12`, the result in test [1] was inactive. The EC50 in test [2] is 13.1 nM. Moreover, in test [3], the maximal effect (Emax) amounted to 100%.
In the same order, the values of `C[C@@H](O)[C@@H]1CC[C@]2(C(=O)O)CC[C@]3(C)[C@H](CC[C@@H]4[C@@]5(C)CC[C@@H](OC(=O)NC6CC6)C(C)(C)[C@@H]5CC[C@]43C)[C@@H]12` are “inactive”, 38 nM and 99%.
Regarding `CC(C)[C@@H]1CC[C@]2(C(=O)O)CC[C@]3(C)[C@H](CC[C@@H]4[C@@]5(C)CC[C@@H](OC(=O)Nc6ccc(F)cc6)C(C)(C)[C@@H]5CC[C@]43C)[C@@H]12`, the result in test [1] was inactive. Also, the EC50 in test [2] was 1510 nM. Also, the Emax in test [3] was 75%.
Regarding `CC(C)[C@@H]1CC[C@]2(C(=O)O)CC[C@]3(C)[C@H](CC[C@@H]4[C@@]5(C)CC[C@@H](OC(=O)N6CCOCC6)C(C)(C)[C@@H]5CC[C@]43C)[C@@H]12`, in test [1], the outcome was inactive. In test [2], the concentration giving a half-maximal response (EC50) came out at 452 nM. In addition, the Emax in test [3] worked out at 95%.
Regarding `CC(C)[C@@H]1CC[C@]2(C(=O)O)CC[C@]3(C)[C@H](CC[C@@H]4[C@@]5(C)CC[C@@H](OC(=O)CO)C(C)(C)[C@@H]5CC[C@]43C)[C@@H]12`, in test [1], the result was inactive. In addition, in test [2], the EC50 is 27 nM. The maximum response (Emax) in test [3] turned out to be 100%.
For `CNS(=O)(=O)O[C@@H]1CC[C@]2(C)[C@H]3CC[C@@H]4[C@H]5[C@H](C(C)C)CC[C@]5(C(=O)O)CC[C@@]4(C)[C@]3(C)CC[C@H]2C1(C)C`, the outcome in test [1] was inactive. In test [2], the concentration giving a half-maximal response (EC50) came out at 45.4 nM. In addition, the Emax in test [3] is 99%.
In the case of `CCCNC(=O)O[C@@H]1CC[C@]2(C)[C@H]3CC[C@@H]4[C@H]5[C@H](C(C)C)CC[C@]5(C(=O)O)CC[C@@]4(C)[C@]3(C)CC[C@H]2C1(C)C`, in test [1], the outcome was inactive. The 50% effective concentration (EC50) in test [2] was 26.9 nM. In test [3], the maximum response (Emax) stood at 96%.
As for `CC(C)NC(=O)O[C@@H]1CC[C@]2(C)[C@H]3CC[C@@H]4[C@H]5[C@H](C(C)C)CC[C@]5(C(=O)O)CC[C@@]4(C)[C@]3(C)CC[C@H]2C1(C)C`, the outcome in test [1] was inactive. For the same compound, the EC50 in test [2] worked out at 124 nM. Besides, the Emax in test [3] came to 97%.
In the same order, the values of `CC(C)[C@@H]1CC[C@]2(C(=O)O)CC[C@]3(C)[C@H](CC[C@@H]4[C@@]5(C)CC[C@@H](OC(=O)Nc6cc[nH]n6)C(C)(C)[C@@H]5CC[C@]43C)[C@@H]12` are “inactive”, 175 nM and 94%.
`CC(C)[C@@H]1CC[C@]2(C(=O)O)CC[C@]3(C)[C@H](CC[C@@H]4[C@@]5(C)CC[C@@H](OC(=O)NC6CCC6)C(C)(C)[C@@H]5CC[C@]43C)[C@@H]12`: the outcome in test [1] was inactive. For the same compound, in test [2], the EC50 was determined as 26.7 nM. In addition, the maximal response (Emax) in test [3] came out at 92%.
In the same order, the values of `CCNC(=O)O[C@@H]1CC[C@]2(C)[C@H]3CC[C@@H]4[C@H]5[C@H](C(C)C)CC[C@]5(C(=O)O)CC[C@@]4(C)[C@]3(C)CC[C@H]2C1(C)C` are “inactive”, 13 nM and 100%.
In the case of `CC(C)[C@@H]1CC[C@]2(N)CC[C@]3(C)[C@H](CC[C@@H]4[C@@]5(C)CC[C@@H](OC(=O)NC6CC6)C(C)(C)[C@@H]5CC[C@]43C)[C@@H]12`, the outcome in test [1] was inactive. Moreover, the EC50 in test [2] came out at 867 nM. Further, in test [3], the Emax was determined as 97%.
`COc1ccc(NC(=O)O[C@@H]2CC[C@]3(C)[C@H]4CC[C@@H]5[C@H]6[C@H](C(C)C)CC[C@]6(C(=O)O)CC[C@@]5(C)[C@]4(C)CC[C@H]3C2(C)C)cc1`: in test [1], the result was inactive. Further, the EC50 in test [2] came out at 230 nM. In test [3], the Emax came out at 91%.
For `CCN(C)C(=O)O[C@@H]1CC[C@]2(C)[C@H]3CC[C@@H]4[C@H]5[C@H](C(C)C)CC[C@]5(C(=O)O)CC[C@@]4(C)[C@]3(C)CC[C@H]2C1(C)C` the same measures were “inactive”, 211 nM and 92%.
In the same order, the values of `COCC(=O)O[C@@H]1CC[C@]2(C)[C@H]3CC[C@@H]4[C@H]5[C@H](C(C)C)CC[C@]5(C(=O)O)CC[C@@]4(C)[C@]3(C)CC[C@H]2C1(C)C` are “inactive”, 25.2 nM and 100%.
